Laboratory results as given in ChEMBL document CHEMBL1201862, “PubChem BioAssay data set” (2004).
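Each compound was tested at five concentrations against cells in 96-well plates for 48 hours. At the GI50, growth is halved.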 Active and inactive are the calls of the source. Rule as the data show it: active = GI50 up to about 1.1 µM and inactive = higher.

How the values were obtained:
Assay in all cases: DTP human tumour cell line panel, 48 h
Hs-578T = system: Hs-578T
HCT-15 = system: HCT-15
M14 = system: M14
K562 = system: K562
OVCAR-8 = system: OVCAR-8
UO-31 = system: UO-31
SNB-19 = system: SNB-19
MDA-N = system: MDA-N
NCI-H226 = system: NCI-H226
HT-29 = system: HT-29
MDA-MB-435 = system: MDA-MB-435
OVCAR-5 = system: OVCAR-5
SF-539 = system: SF-539
HOP-62 = system: HOP-62
IGROV-1 = system: IGROV-1
SK-MEL-5 = system: SK-MEL-5
SF-268 = system: SF-268
TK-10 = system: TK-10
SK-MEL-28 = system: SK-MEL-28
SR = system: SR

Cn1c(N=P(c2ccccc2)(c2ccccc2)c2ccccc2)c([N+](=O)[O-])c(=O)n(C)c1=O
GI50 (Hs-578T): 25.2 µM (inactive)
GI50 (HCT-15): 51.9 µM
GI50 (M14): 31.6 µM (inactive)
GI50 (K562): 16.2 µM (inactive)
GI50 (OVCAR-8): 0.991 µM (active)
GI50 (UO-31): 71 µM (inactive)
GI50 (SNB-19): > 100 µM (inactive)
GI50 (MDA-N): 34.1 µM (inactive)
GI50 (NCI-H226): > 100 µM (inactive)
GI50 (HT-29): 44.5 µM (inactive)
GI50 (MDA-MB-435): 35.2 µM (inactive)
GI50 (OVCAR-5): > 100 µM (inactive)
GI50 (SF-539): > 100 µM (inactive)
GI50 (HOP-62): 48 µM (inactive)
GI50 (IGROV-1): 48 µM (inactive)
GI50 (SK-MEL-5): 47.4 µM (inactive)
GI50 (SF-268): 78.7 µM (inactive)
GI50 (TK-10): 67.9 µM (inactive)

c1ccc(NCCSc2nc3ccccc3s2)cc1
GI50 (Hs-578T): > 100 µM (inactive)
GI50 (HCT-15): 18 µM
GI50 (SK-MEL-28): > 100 µM (inactive)
GI50 (M14): 44.7 µM (inactive)
GI50 (K562): 34 µM (inactive)
GI50 (OVCAR-8): 79.1 µM (inactive)
GI50 (UO-31): 35 µM (inactive)
GI50 (SNB-19): > 100 µM (inactive)
GI50 (MDA-N): 36.9 µM (inactive)
GI50 (HT-29): 30.5 µM (inactive)
GI50 (MDA-MB-435): 43.3 µM (inactive)
GI50 (OVCAR-5): 54 µM (inactive)
GI50 (HOP-62): > 100 µM (inactive)
GI50 (IGROV-1): > 100 µM (inactive)
GI50 (SK-MEL-5): 21.5 µM (inactive)
GI50 (SR): 39.7 µM (inactive)
GI50 (SF-268): > 100 µM (inactive)
GI50 (TK-10): 23.6 µM (inactive)

CC(=O)c1ccc2c3c1O[C@H]1c4[nH]c5ccccc5c4C[C@@]4(O)[C@@H](C2)N(CC2CC2)CC[C@]314
GI50 (Hs-578T): 0.933 µM (active)
GI50 (HCT-15): 8.67 µM
GI50 (SK-MEL-28): 8.17 µM (inactive)
GI50 (M14): 16.9 µM (inactive)
GI50 (K562): 16.8 µM (inactive)
GI50 (OVCAR-8): 13.6 µM (inactive)
GI50 (UO-31): 15.3 µM (inactive)
GI50 (SNB-19): 0.573 µM (active)
GI50 (MDA-N): 17.7 µM (inactive)
GI50 (NCI-H226): 17.1 µM (inactive)
GI50 (HT-29): 4.13 µM (inactive)
GI50 (MDA-MB-435): 18.6 µM (inactive)
GI50 (OVCAR-5): 13.2 µM (inactive)
GI50 (SF-539): 13.6 µM (inactive)
GI50 (HOP-62): 21 µM (inactive)
GI50 (IGROV-1): 13.6 µM (inactive)
GI50 (SK-MEL-5): 16 µM (inactive)
GI50 (SF-268): 13.1 µM (inactive)
GI50 (TK-10): 18.2 µM (inactive)

S=C(N1CCN(c2cccc(Cl)c2)CC1)N1CCN(c2cccc(Cl)c2)CC1
GI50 (Hs-578T): 18.6 µM (inactive)
GI50 (HCT-15): 57.3 µM
GI50 (SK-MEL-28): 42.9 µM (inactive)
GI50 (M14): 53.7 µM (inactive)
GI50 (K562): 33 µM (inactive)
GI50 (OVCAR-8): > 100 µM (inactive)
GI50 (UO-31): 24 µM (inactive)
GI50 (SNB-19): 39.7 µM (inactive)
GI50 (MDA-N): > 100 µM (inactive)
GI50 (NCI-H226): 22 µM (inactive)
GI50 (HT-29): 28.8 µM (inactive)
GI50 (MDA-MB-435): 82 µM (inactive)
GI50 (OVCAR-5): 44.1 µM (inactive)
GI50 (HOP-62): 36.8 µM (inactive)
GI50 (IGROV-1): 42.6 µM (inactive)
GI50 (SK-MEL-5): 34.2 µM (inactive)
GI50 (SR): 13.4 µM (inactive)
GI50 (SF-268): 39.9 µM (inactive)
GI50 (TK-10): 43.4 µM (inactive)

CC1=CC2C(O1)C1C(=O)C=CC(=O)C1=CC2[N+](=O)[O-] (stereo not given)
GI50 (Hs-578T): 18.1 µM (inactive)
GI50 (HCT-15): 19.1 µM
GI50 (SK-MEL-28): 27.4 µM (inactive)
GI50 (M14): 14 µM (inactive)
GI50 (K562): 7.67 µM (inactive)
GI50 (OVCAR-8): 22.5 µM (inactive)
GI50 (UO-31): 5.22 µM (inactive)
GI50 (SNB-19): 34.6 µM (inactive)
GI50 (MDA-N): 23.1 µM (inactive)
GI50 (NCI-H226): > 100 µM (inactive)
GI50 (HT-29): 16.5 µM (inactive)
GI50 (MDA-MB-435): 12.2 µM (inactive)
GI50 (OVCAR-5): 24.5 µM (inactive)
GI50 (SF-539): 33.5 µM (inactive)
GI50 (HOP-62): 21 µM (inactive)
GI50 (IGROV-1): 17.9 µM (inactive)
GI50 (SK-MEL-5): 17.5 µM (inactive)
GI50 (SF-268): 15 µM (inactive)
GI50 (TK-10): 16.1 µM (inactive)

CN(C)CCNc1nc2ccccc2c2c1C(=O)c1ccccc1-2
GI50 (Hs-578T): 2.1 µM (inactive)
GI50 (HCT-15): 0.15 µM
GI50 (SK-MEL-28): 0.471 µM (active)
GI50 (M14): 0.316 µM (active)
GI50 (K562): 0.163 µM (active)
GI50 (OVCAR-8): 0.195 µM (active)
GI50 (UO-31): 0.15 µM (active)
GI50 (SNB-19): 0.47 µM (active)
GI50 (MDA-N): 0.318 µM (active)
GI50 (NCI-H226): 0.205 µM (active)
GI50 (HT-29): 0.191 µM (active)
GI50 (MDA-MB-435): 0.288 µM (active)
GI50 (OVCAR-5): 0.367 µM (active)
GI50 (SF-539): 0.382 µM (active)
GI50 (HOP-62): 0.233 µM (active)
GI50 (IGROV-1): 0.0942 µM (active)
GI50 (SK-MEL-5): 0.301 µM (active)
GI50 (SF-268): 0.279 µM (active)
GI50 (TK-10): 0.513 µM (active)

C/C=C\C(CC(=O)NCC(=O)c1c[nH]c2ccccc12)CC(=O)OC (stereo not given)
GI50 (Hs-578T): > 100 µM (inactive)
GI50 (HCT-15): > 100 µM
GI50 (SK-MEL-28): > 100 µM (inactive)
GI50 (M14): > 100 µM (inactive)
GI50 (K562): > 100 µM (inactive)
GI50 (OVCAR-8): > 100 µM (inactive)
GI50 (UO-31): > 100 µM (inactive)
GI50 (SNB-19): > 100 µM (inactive)
GI50 (MDA-N): > 100 µM (inactive)
GI50 (HT-29): > 100 µM (inactive)
GI50 (MDA-MB-435): > 100 µM (inactive)
GI50 (OVCAR-5): > 100 µM (inactive)
GI50 (HOP-62): > 100 µM (inactive)
GI50 (IGROV-1): > 100 µM (inactive)
GI50 (SK-MEL-5): > 100 µM (inactive)
GI50 (SR): > 100 µM (inactive)
GI50 (SF-268): > 100 µM (inactive)
GI50 (TK-10): > 100 µM (inactive)
